According to patent US20020111274A1, “1-alkyl-3-[1-(substituted phenyl) benzotriazol-6-yl] uracils” (BASF Aktiengesellschaft, priority 2000, published 2002):

What was measured:
Design in all cases: scale not given here
ABUTH Velvetleaf [1] = assay: Postemergence herbicidal evaluation, ABUTH; format: in vivo, Abutilon theophrasti, Medic.; conditions: postemergence spray, rated about two-three weeks after treatment
Outline: (§1)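 Postemergence spray, 40 psi nozzle, on ~2-week seedlings. Carrier: acetone/water 80/20, 1.0% methylated seed oil; dose ~0.006–0.400 kg/ha. Scored visually at 2–3 weeks.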

AMBEL Ragweed, Common [2] = assay: Postemergence herbicidal evaluation, AMBEL; format: in vivo, Ambrosia artemisifolia, L.; conditions: postemergence spray, rated about two-three weeks after treatment
Outline: as §1

CASOB Sicklepod [3] = assay: Postemergence herbicidal evaluation, CASOB; format: in vivo, Cassia obtusifolia, L.; conditions: postemergence spray, rated about two-three weeks after treatment
Outline: as §1

[4] = system: CHEAL Lambsquarters, Common; assay: Postemergence herbicidal evaluation, CHEAL; format: in vivo, Chenopodium album, L.; conditions: postemergence spray, rated about two-three weeks after treatment
Outline: as §1

ECHOG Barnyardgrass [5] = assay: Postemergence herbicidal evaluation, ECHOG; format: in vivo, Echinochloa crus-galli, (L.) Beau; conditions: postemergence spray, rated about two-three weeks after treatment
Outline: as §1

GALAP Galium [6] = assay: Postemergence herbicidal evaluation, GALAP; format: in vivo, Galium aparine; conditions: postemergence spray, rated about two-three weeks after treatment
Outline: as §1

[7] = system: IPOHE Morningglory, Ivyleaf; assay: Postemergence herbicidal evaluation, IPOHE; format: in vivo, Ipomoea hederacea, (L.) Jacq.; conditions: postemergence spray, rated about two-three weeks after treatment
Outline: as §1

SETVI Foxtail, Green [8] = assay: Postemergence herbicidal evaluation, SETVI; format: in vivo, Setaria viridis, (L.) Beau; conditions: postemergence spray, rated about two-three weeks after treatment
Outline: as §1

GLXMAW Soybean, Williams [9] = assay: Postemergence herbicidal evaluation, GLXMAW; format: in vivo, Glycine max, (L.) Merr. cv Williams; conditions: postemergence spray, rated about two-three weeks after treatment
Outline: as §1

[10] = system: TRZAWR Wheat, Winter, cv Riband; assay: Postemergence herbicidal evaluation, TRZAWR; format: in vivo, Triticum aestivum; conditions: postemergence spray, rated about two-three weeks after treatment
Outline: as §1

ORYSAT Rice, Tebonnet [11] = assay: Postemergence herbicidal evaluation, ORYSAT; format: in vivo, Oryza sativa, (L.); conditions: postemergence spray, rated about two-three weeks after treatment
Outline: as §1

ZEAMX Corn, Field [12] = assay: Postemergence herbicidal evaluation, ZEAMX; format: in vivo, Zea mays, L. (Sammel-Bezeichnung); conditions: postemergence spray, rated about two-three weeks after treatment
Outline: as §1

ABUTH Velvetleaf [13] = assay: Preemergence herbicidal evaluation, ABUTH; format: in vivo, Abutilon theophrasti, Medic.; conditions: preemergence
Outline: (§2)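 Visual ratings were taken four to five weeks after application. Before that, cups sown with seed in potting soil received a spray of compound dissolved in aqueous acetone, equivalent to about 0.013 to 0.800 kg/ha, and stood on greenhouse benches under conventional care.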

AMBEL Ragweed, Common [14] = assay: Preemergence herbicidal evaluation, AMBEL; format: in vivo, Ambrosia artemisifolia, L.; conditions: preemergence
Outline: as §2

CASOB Sicklepod [15] = assay: Preemergence herbicidal evaluation, CASOB; format: in vivo, Cassia obtusifolia, L.; conditions: preemergence
Outline: as §2

[16] = system: CHEAL Lambsquarters, Common; assay: Preemergence herbicidal evaluation, CHEAL; format: in vivo, Chenopodium album, L.; conditions: preemergence
Outline: as §2

ECHOG Barnyardgrass [17] = assay: Preemergence herbicidal evaluation, ECHOG; format: in vivo, Echinochloa crus-galli, (L.) Beau; conditions: preemergence
Outline: as §2

GALAP Galium [18] = assay: Preemergence herbicidal evaluation, GALAP; format: in vivo, Galium aparine; conditions: preemergence
Outline: as §2

[19] = system: IPOHE Morningglory, Ivyleaf; assay: Preemergence herbicidal evaluation, IPOHE; format: in vivo, Ipomoea hederacea, (L.) Jacq.; conditions: preemergence
Outline: as §2

SETVI Foxtail, Green [20] = assay: Preemergence herbicidal evaluation, SETVI; format: in vivo, Setaria viridis, (L.) Beau; conditions: preemergence
Outline: as §2

GLXMAW Soybean, Williams [21] = assay: Preemergence herbicidal evaluation, GLXMAW; format: in vivo, Glycine max, (L.) Merr. cv Williams; conditions: preemergence
Outline: as §2

[22] = system: TRZAWR Wheat, Winter, cv Riband; assay: Preemergence herbicidal evaluation, TRZAWR; format: in vivo, Triticum aestivum; conditions: preemergence
Outline: as §2

ORYSAT Rice, Tebonnet [23] = assay: Preemergence herbicidal evaluation, ORYSAT; format: in vivo, Oryza sativa, (L.); conditions: preemergence
Outline: as §2

ZEAMX Corn, Field [24] = assay: Preemergence herbicidal evaluation, ZEAMX; format: in vivo, Zea mays, L. (Sammel-Bezeichnung); conditions: preemergence
Outline: as §2

Cc1cc(O)ccc1-n1nnc2cc(F)c(-n3c(=O)cc(C(F)(F)F)n(C)c3=O)cc21 [Example 33]
Postemergence herbicidal rating ABUTH (ABUTH Velvetleaf [1]; 0.008 kg/ha): 0.0
Postemergence herbicidal rating ABUTH (ABUTH Velvetleaf [1]; 0.016 kg/ha): 3.0
Postemergence herbicidal rating ABUTH (ABUTH Velvetleaf [1]; 0.032 kg/ha): 3.0
Postemergence herbicidal rating ABUTH (ABUTH Velvetleaf [1]; 0.062 kg/ha): 5.0
Postemergence herbicidal rating AMBEL (AMBEL Ragweed, Common [2]; 0.008 kg/ha): 0.0
Postemergence herbicidal rating AMBEL (AMBEL Ragweed, Common [2]; 0.016 kg/ha): 0.0
Postemergence herbicidal rating AMBEL (AMBEL Ragweed, Common [2]; 0.032 kg/ha): 0.0
Postemergence herbicidal rating AMBEL (AMBEL Ragweed, Common [2]; 0.062 kg/ha): 0.0
Postemergence herbicidal rating CASOB (CASOB Sicklepod [3]; 0.008 kg/ha): 0.0
Postemergence herbicidal rating CASOB (CASOB Sicklepod [3]; 0.016 kg/ha): 0.0
Postemergence herbicidal rating CASOB (CASOB Sicklepod [3]; 0.032 kg/ha): 0.0
Postemergence herbicidal rating CASOB (CASOB Sicklepod [3]; 0.062 kg/ha): 0.0
Postemergence herbicidal rating CHEAL ([4]; 0.008 kg/ha): 0.0
Postemergence herbicidal rating CHEAL ([4]; 0.016 kg/ha): 0.0
Postemergence herbicidal rating CHEAL ([4]; 0.032 kg/ha): 0.0
Postemergence herbicidal rating CHEAL ([4]; 0.062 kg/ha): 2.0
Postemergence herbicidal rating ECHCG (ECHOG Barnyardgrass [5]; 0.008 kg/ha): 0.0
Postemergence herbicidal rating ECHCG (ECHOG Barnyardgrass [5]; 0.016 kg/ha): 0.0
Postemergence herbicidal rating ECHCG (ECHOG Barnyardgrass [5]; 0.032 kg/ha): 0.0
Postemergence herbicidal rating ECHCG (ECHOG Barnyardgrass [5]; 0.062 kg/ha): 0.0
Postemergence herbicidal rating GALAP (GALAP Galium [6]; 0.008 kg/ha): 0.0
Postemergence herbicidal rating GALAP (GALAP Galium [6]; 0.016 kg/ha): 0.0
Postemergence herbicidal rating GALAP (GALAP Galium [6]; 0.032 kg/ha): 0.0
Postemergence herbicidal rating GALAP (GALAP Galium [6]; 0.062 kg/ha): 0.0
Postemergence herbicidal rating IPOHE ([7]; 0.008 kg/ha): 0.0
Postemergence herbicidal rating IPOHE ([7]; 0.016 kg/ha): 2.0
Postemergence herbicidal rating IPOHE ([7]; 0.032 kg/ha): 3.0
Postemergence herbicidal rating IPOHE ([7]; 0.062 kg/ha): 9.0
Postemergence herbicidal rating SETVI (SETVI Foxtail, Green [8]; 0.008 kg/ha): 0.0
Postemergence herbicidal rating SETVI (SETVI Foxtail, Green [8]; 0.016 kg/ha): 0.0
Postemergence herbicidal rating SETVI (SETVI Foxtail, Green [8]; 0.032 kg/ha): 0.0
Postemergence herbicidal rating SETVI (SETVI Foxtail, Green [8]; 0.062 kg/ha): 0.0
Postemergence herbicidal rating GLXMAW (GLXMAW Soybean, Williams [9]; 0.008 kg/ha): 1.5
Postemergence herbicidal rating GLXMAW (GLXMAW Soybean, Williams [9]; 0.016 kg/ha): 3.5
Postemergence herbicidal rating GLXMAW (GLXMAW Soybean, Williams [9]; 0.032 kg/ha): 4.0
Postemergence herbicidal rating GLXMAW (GLXMAW Soybean, Williams [9]; 0.062 kg/ha): 5.0
Postemergence herbicidal rating TRZAWR ([10]; 0.008 kg/ha): 0.5
Postemergence herbicidal rating TRZAWR ([10]; 0.016 kg/ha): 1.0
Postemergence herbicidal rating TRZAWR ([10]; 0.032 kg/ha): 2.0
Postemergence herbicidal rating TRZAWR ([10]; 0.062 kg/ha): 2.5
Postemergence herbicidal rating ORYSAT (ORYSAT Rice, Tebonnet [11]; 0.008 kg/ha): 0.0
Postemergence herbicidal rating ORYSAT (ORYSAT Rice, Tebonnet [11]; 0.016 kg/ha): 0.0
Postemergence herbicidal rating ORYSAT (ORYSAT Rice, Tebonnet [11]; 0.032 kg/ha): 0.5
Postemergence herbicidal rating ORYSAT (ORYSAT Rice, Tebonnet [11]; 0.062 kg/ha): 2.0
Postemergence herbicidal rating ZEAMX (ZEAMX Corn, Field [12]; 0.008 kg/ha): 3.0
Postemergence herbicidal rating ZEAMX (ZEAMX Corn, Field [12]; 0.016 kg/ha): 3.0
Postemergence herbicidal rating ZEAMX (ZEAMX Corn, Field [12]; 0.032 kg/ha): 3.5
Postemergence herbicidal rating ZEAMX (ZEAMX Corn, Field [12]; 0.062 kg/ha): 4.0
ABUTH herbicidal rating (ABUTH Velvetleaf [13]; rate 0.016 kg/ha): 0.0
ABUTH herbicidal rating (ABUTH Velvetleaf [13]; rate 0.032 kg/ha): 0.0
ABUTH herbicidal rating (ABUTH Velvetleaf [13]; rate 0.062 kg/ha): 0.0
ABUTH herbicidal rating (ABUTH Velvetleaf [13]; rate 0.125 kg/ha): 9.0
AMBEL herbicidal rating (AMBEL Ragweed, Common [14]; rate 0.016 kg/ha): 0.0
AMBEL herbicidal rating (AMBEL Ragweed, Common [14]; rate 0.032 kg/ha): 0.0
AMBEL herbicidal rating (AMBEL Ragweed, Common [14]; rate 0.062 kg/ha): 0.0
AMBEL herbicidal rating (AMBEL Ragweed, Common [14]; rate 0.125 kg/ha): 0.0
CASOB herbicidal rating (CASOB Sicklepod [15]; rate 0.016 kg/ha): 0.0
CASOB herbicidal rating (CASOB Sicklepod [15]; rate 0.032 kg/ha): 0.0
CASOB herbicidal rating (CASOB Sicklepod [15]; rate 0.062 kg/ha): 0.0
CASOB herbicidal rating (CASOB Sicklepod [15]; rate 0.125 kg/ha): 0.0
CHEAL herbicidal rating ([16]; rate 0.016 kg/ha): 9.0
CHEAL herbicidal rating ([16]; rate 0.032 kg/ha): 9.0
CHEAL herbicidal rating ([16]; rate 0.062 kg/ha): 9.0
CHEAL herbicidal rating ([16]; rate 0.125 kg/ha): 9.0
ECHCG herbicidal rating (ECHOG Barnyardgrass [17]; rate 0.016 kg/ha): 0.0
ECHCG herbicidal rating (ECHOG Barnyardgrass [17]; rate 0.032 kg/ha): 0.0
ECHCG herbicidal rating (ECHOG Barnyardgrass [17]; rate 0.062 kg/ha): 0.0
ECHCG herbicidal rating (ECHOG Barnyardgrass [17]; rate 0.125 kg/ha): 0.0
GALAP herbicidal rating (GALAP Galium [18]; rate 0.016 kg/ha): 0.0
GALAP herbicidal rating (GALAP Galium [18]; rate 0.032 kg/ha): 0.0
GALAP herbicidal rating (GALAP Galium [18]; rate 0.062 kg/ha): 0.0
GALAP herbicidal rating (GALAP Galium [18]; rate 0.125 kg/ha): 0.0
IPOHE herbicidal rating ([19]; rate 0.016 kg/ha): 0.0
IPOHE herbicidal rating ([19]; rate 0.032 kg/ha): 0.0
IPOHE herbicidal rating ([19]; rate 0.062 kg/ha): 0.0
IPOHE herbicidal rating ([19]; rate 0.125 kg/ha): 0.0
SETVI herbicidal rating (SETVI Foxtail, Green [20]; rate 0.016 kg/ha): 0.0
SETVI herbicidal rating (SETVI Foxtail, Green [20]; rate 0.032 kg/ha): 0.0
SETVI herbicidal rating (SETVI Foxtail, Green [20]; rate 0.062 kg/ha): 0.0
SETVI herbicidal rating (SETVI Foxtail, Green [20]; rate 0.125 kg/ha): 0.0
GLXMAW herbicidal rating (GLXMAW Soybean, Williams [21]; rate 0.016 kg/ha): 0.0
GLXMAW herbicidal rating (GLXMAW Soybean, Williams [21]; rate 0.032 kg/ha): 0.0
GLXMAW herbicidal rating (GLXMAW Soybean, Williams [21]; rate 0.062 kg/ha): 0.0
GLXMAW herbicidal rating (GLXMAW Soybean, Williams [21]; rate 0.125 kg/ha): 0.0
TRZAWR herbicidal rating ([22]; rate 0.016 kg/ha): 0.0
TRZAWR herbicidal rating ([22]; rate 0.032 kg/ha): 0.0
TRZAWR herbicidal rating ([22]; rate 0.062 kg/ha): 0.0
TRZAWR herbicidal rating ([22]; rate 0.125 kg/ha): 0.0
ORYSAT herbicidal rating (ORYSAT Rice, Tebonnet [23]; rate 0.016 kg/ha): 0.0
ORYSAT herbicidal rating (ORYSAT Rice, Tebonnet [23]; rate 0.032 kg/ha): 0.0
ORYSAT herbicidal rating (ORYSAT Rice, Tebonnet [23]; rate 0.062 kg/ha): 0.0
ORYSAT herbicidal rating (ORYSAT Rice, Tebonnet [23]; rate 0.125 kg/ha): 0.0
ZEAMX herbicidal rating (ZEAMX Corn, Field [24]; rate 0.016 kg/ha): 0.0
ZEAMX herbicidal rating (ZEAMX Corn, Field [24]; rate 0.032 kg/ha): 0.0
ZEAMX herbicidal rating (ZEAMX Corn, Field [24]; rate 0.062 kg/ha): 0.0
ZEAMX herbicidal rating (ZEAMX Corn, Field [24]; rate 0.125 kg/ha): 0.0
